From US4885310A, “Anti-fungal methods and agent” (Kern; Gerald N., priority 1985, dated 1989)

What was measured:
mycoses = conditions: cited from earlier work
HeLa [1] = assay: Cytotoxicity of docusate sodium in solutions containing serum, HeLa; format: cell-based, human; parameters: key: 0: Cells have normal morphology; 4+: > 90% of cells showed CTE.; ±c: less than 10% of cells showed CTE; conditions: 2% fetal calf serum, 24 h
Experimental: (§1) The cell lines used to evaluate cytotoxicity of docusate sodium were MA-104 derived from monkey kidneys, HeLa derived from human uterine carcinoma and primary fibroblasts from human foreskin. The cells were grown to confluency in 60×15 mm dishes. The cell monolayers were washed free of growth medium and 5 ml of serum-less growth medium containing docusate sodium at various concentrations was added. The cultures were incubated 24 hours at 37° C. and the cells then examined microscopically for cytotoxic effects (CTE). Controls were done in the same manner except that they were not exposed to docusate sodium.
(§2) The same procedure that was used for Example 8 was used for this example except that the medium used for growing the cells contained 2% by volume fetal calf serum.
(§3) Table 2 lists the cytotoxic effect of docusate sodium at various concentrations in selected cell lines in the cell cultures of this Example.

[2] = system: primary fibroblasts from human foreskin; assay: Cytotoxicity of docusate sodium in solutions free of serum, foreskin fibroblasts; format: cell-based; parameters: key: 0: Cells had normal morphology; 4+: > 90% of cells showed CTE; conditions: 24 h, 37° C.
Experimental: as §1
(§4) Table 1 lists the cytotoxicity of docusate sodium with regard to selected cell lines in cell culture.

Scopulariopsis = assay: Inhibition of fungal growth on potato dextrose agar plates, Scopulariopsis; format: cell-based
Experimental: (§5) FIG. 1 is a photograph of fungal cultures of Scopulariopsis, Penicillium and Aspergillus treated with various concentrations of docusate sodium from 0 concentration (the control) to 2.0 mg/ml and incubated for five days at room temperature. The nature of fungal growth required that a different experimental approach from that of Example 10 be used to determine the growth inhibition effects of docusate sodium on fungi. For these experiments potato dextrose agar plates containing different concentrations of docusate sodium were inoculated in the center of the agar with Scopulariopsis, Penicillium and Aspergillus. The cultures were then sealed with […] brand film and incubated at room temperature for five days. Since growth could not be measured by absorbance visual comparisons were made. […] Similar tests were conducted with Mucor.

[3] = use as food additive and stool softening agent; cited from earlier work
[4] = system: foreskin fibroblast cells; assay: Cytotoxicity of docusate sodium in solutions containing serum, foreskin fibroblasts; format: cell-based, human; parameters: key: 0: Cells have normal morphology; 4+: > 90% of cells showed CTE.; ±c: less than 10% of cells showed CTE; conditions: 2% fetal calf serum, 24 h
Experimental: as §1, §2, §3

Candida albicans = assay: Inhibition of the growth of Candida albicans in broth culture; format: cell-based; conditions: TSB, 30° C.
Experimental: Candida albicans is a yeast and is the causative agent of thrush in humans and is a cause of vaginal infections, urinary tract infections, and infections at other body sites. The growth inhibition effects of docusate sodium on C. albicans are determined in broth culture using trypticase soy broth (TSB) which is a medium which supports growth of a wide variety of microorganisms. TSB was sterilized by autoclaving and filter sterilized docusate sodium in distilled water was added to the sterile TSB at the concentrations shown in Table 3. The cultures were inoculated and incubated at 30° C. for 72 hours. Growth in the cultures was checked at 24 hour intervals.

Penicillium = assay: Inhibition of fungal growth on potato dextrose agar plates, Penicillium; format: cell-based
Experimental: as §5

MA-104 [5] = assay: Cytotoxicity of docusate sodium in solutions free of serum, MA-104; format: cell-based, monkey; parameters: key: 0: Cells had normal morphology; 4+: > 90% of cells showed CTE; conditions: 24 h, 37° C.
Experimental: as §1, §4

MA-104 [6] = assay: Cytotoxicity of docusate sodium in solutions containing serum, MA-104; format: cell-based, monkey; parameters: key to cytotoxic effect (CTE): 0: Cells have normal morphology; 4+: > 90% of cells showed CTE.; ±c: less than 10% of cells showed CTE; conditions: for cytotoxic effect (CTE): 24 h, MA-104
Experimental: as §1, §2, §3

HeLa [7] = assay: Cytotoxicity of docusate sodium in solutions free of serum, HeLa; format: cell-based, human; parameters: key: 0: Cells had normal morphology; 4+: > 90% of cells showed CTE; conditions: 24 h, 37° C.
Experimental: as §1, §4

Aspergillus = assay: Inhibition of fungal growth on potato dextrose agar plates, Aspergillus; format: cell-based
Experimental: as §5

[8] = cited from earlier work
Mucor = assay: Inhibition of fungal growth, Mucor; format: cell-based; conditions: all concentrations tested
Experimental: The nature of fungal growth required that a different experimental approach from that of Example 10 be used to determine the growth inhibition effects of docusate sodium on fungi. For these experiments potato dextrose agar plates containing different concentrations of docusate sodium were inoculated in the center of the agar with Scopulariopsis, Penicillium and Aspergillus. The cultures were then sealed with PARAFILM brand film and incubated at room temperature for five days. Since growth could not be measured by absorbance visual comparisons were made. […] The results to date indicate that docusate sodium is fungistatic. […] Similar tests were conducted with Mucor.

Structure (SMILES): C[C@@H]1[C@H](O)[C@@H](C)/C=C/C=C/C=C/C=C/C=C/C=C/C=C/[C@H](O[C@@H]2O[C@H](C)[C@@H](O)[C@H](N)[C@@H]2O)C[C@@H]2O[C@](O)(C[C@@H](O)C[C@@H](O)[C@H](O)CC[C@@H](O)C[C@@H](O)CC(=O)O[C@H]1C)C[C@H](O)[C@H]2C(=O)O [amphotericin B]
- toxicity (mycoses; in vivo): often exhibits some toxicity
- effectiveness against superficial and cutaneous mycoses (mycoses; superficial and cutaneous mycoses): not effective for the treatment of superficial and cutaneous mycoses
- effectiveness against systemic mycoses (mycoses; systemic mycoses): effective for the treatment of many, but not all, systemic mycoses

Structure (SMILES): COC1=CC(=O)C[C@@H](C)[C@]12Oc1c(Cl)c(OC)cc(OC)c1C2=O [griseofulvin]
- effectiveness against mycoses (mycoses; requires prolonged administration of weeks or months): effective only for superficial and subcutaneous mycoses

Structure (SMILES): CCCCC(CC)COC(=O)CC(C(=O)OCC(CC)CCCC)S(=O)(=O)O (centres unmarked) [docusate sodium, 1,4 bis(2-ethylhexyl) sodium sulfosuccinate]
- cytotoxic effect (CTE) (HeLa [1]; 0.02 mg/ml): 0
- cytotoxic effect (CTE) (HeLa [1]; 0.03 mg/ml): ±c (less than 10% of cells showed CTE.)
- cytotoxic effect (CTE) (HeLa [1]; 0.04 mg/ml): 4+ (> 90% of cells showed CTE.)
- toxicity (CTE) ([2]; 0.01 mg/ml): 0
- toxicity (CTE) ([2]; 0.05 mg/ml): 4+ (> 90% of cells showed CTE.)
- toxicity (CTE) ([2]; 0.1 mg/ml): 4+ (> 90% of cells showed CTE.)
- toxicity (CTE) ([2]; 0.2 mg/ml): 4+ (> 90% of cells showed CTE.)
- relative sensitivity of fungus (Scopulariopsis; Scopulariopsis versus Penicillium): more sensitive
- growth inhibition (Scopulariopsis; all concentrations up to 2.0 mg/ml, five days, room temperature, Scopulariopsis): growth of fungi was inhibited at all concentrations
- sensitivity of growing tips of fungal mycelia (microscopic examination) (Scopulariopsis; stated for the fungal colonies of FIG. 1): growing tips of the fungal mycelia (filaments) are sensitive
- fungistatic nature of effect (Scopulariopsis; stated for the fungi of FIG. 1): fungistatic
- systemic or local concentration on a cellular level [3]: do not provide a systemic or local concentration of from about 0.01 mg to about 0.2 mg of docusate sodium per ml on a cellular level
- cytotoxic effect (CTE) ([4]; 0.01 mg/ml): 0
- cytotoxic effect (CTE) ([4]; 0.02 mg/ml): ±c (less than 10% of cells showed CTE.)
- cytotoxic effect (CTE) ([4]; 0.03 mg/ml): 4+ (> 90% of cells showed CTE.)
- cytotoxic effect (CTE) ([4]; 0.04 mg/ml): 4+ (> 90% of cells showed CTE.)
- Growth recorded as absorbance at 540 nm (Candida albicans; 0.06 mg/ml, 0 h): 0.185
- Growth recorded as absorbance at 540 nm (Candida albicans; 0.06 mg/ml, 24 h): 0.610
- Growth recorded as absorbance at 540 nm (Candida albicans; 0.06 mg/ml, 48 h): 1.10
- Growth recorded as absorbance at 540 nm (Candida albicans; 0.06 mg/ml, 72 h): 0.920
- Growth recorded as absorbance at 540 nm (Candida albicans; 0.12 mg/ml, 0 h): 0.230
- Growth recorded as absorbance at 540 nm (Candida albicans; 0.12 mg/ml, 24 h): 0.440
- Growth recorded as absorbance at 540 nm (Candida albicans; 0.12 mg/ml, 48 h): 0.700
- Growth recorded as absorbance at 540 nm (Candida albicans; 0.12 mg/ml, 72 h): 0.950
- Growth recorded as absorbance at 540 nm (Candida albicans; 0.25 mg/ml, 0 h): 0.220
- Growth recorded as absorbance at 540 nm (Candida albicans; 0.25 mg/ml, 24 h): 0.345
- Growth recorded as absorbance at 540 nm (Candida albicans; 0.25 mg/ml, 48 h): 0.600
- Growth recorded as absorbance at 540 nm (Candida albicans; 0.25 mg/ml, 72 h): 0.720
- Growth recorded as absorbance at 540 nm (Candida albicans; 0.5 mg/ml, 0 h): 0.240
- Growth recorded as absorbance at 540 nm (Candida albicans; 0.5 mg/ml, 24 h): 0.315
- Growth recorded as absorbance at 540 nm (Candida albicans; 0.5 mg/ml, 48 h): 0.420
- Growth recorded as absorbance at 540 nm (Candida albicans; 0.5 mg/ml, 72 h): 0.730
- Growth recorded as absorbance at 540 nm (Candida albicans; 1.0 mg/ml, 0 h): 0.290
- Growth recorded as absorbance at 540 nm (Candida albicans; 1.0 mg/ml, 24 h): 0.310
- Growth recorded as absorbance at 540 nm (Candida albicans; 1.0 mg/ml, 48 h): 0.450
- Growth recorded as absorbance at 540 nm (Candida albicans; 1.0 mg/ml, 72 h): 0.610
- Growth recorded as absorbance at 540 nm (Candida albicans; 2.0 mg/ml, 0 h): 0.320
- Growth recorded as absorbance at 540 nm (Candida albicans; 2.0 mg/ml, 24 h): 0.470
- Growth recorded as absorbance at 540 nm (Candida albicans; 2.0 mg/ml, 48 h): 0.620
- Growth recorded as absorbance at 540 nm (Candida albicans; 2.0 mg/ml, 72 h): 0.780
- relative sensitivity of fungus (Penicillium; Penicillium versus Aspergillus and Scopulariopsis): least sensitive
- growth inhibition (Penicillium; all concentrations up to 2.0 mg/ml, five days, room temperature, Penicillium): growth of fungi was inhibited at all concentrations
- toxicity (CTE) (MA-104 [5]; 0.01 mg/ml): 0
- toxicity (CTE) (MA-104 [5]; 0.05 mg/ml): 4+ (> 90% of cells showed CTE.)
- toxicity (CTE) (MA-104 [5]; 0.1 mg/ml): 4+ (> 90% of cells showed CTE.)
- toxicity (CTE) (MA-104 [5]; 0.2 mg/ml): 4+ (> 90% of cells showed CTE.)
- cytotoxic effect (CTE) (MA-104 [6]; 0.01 mg/ml, 2% fetal calf serum): 0
- cytotoxic effect (CTE) (MA-104 [6]; 0.02 mg/ml, 2% fetal calf serum): 0
- cytotoxic effect (CTE) (MA-104 [6]; 0.03 mg/ml, 2% fetal calf serum): 0
- cytotoxic effect (CTE) (MA-104 [6]; 0.04 mg/ml, 2% fetal calf serum): 0
- effect of serum on cytotoxicity (MA-104 [6]; 2% fetal calf serum vs serum-free, stated for the cells of Table 2): presence of serum reduced the cytotoxicity
- relative sensitivity of MA-104 cells (MA-104 [6]; 2% fetal calf serum, versus HeLa and foreskin fibroblast cells): less sensitive
- toxicity (CTE) (HeLa [7]; 0.01 mg/ml): 0
- toxicity (CTE) (HeLa [7]; 0.05 mg/ml): 4+ (> 90% of cells showed CTE.)
- toxicity (CTE) (HeLa [7]; 0.1 mg/ml): 4+ (> 90% of cells showed CTE.)
- toxicity (CTE) (HeLa [7]; 0.2 mg/ml): 4+ (> 90% of cells showed CTE.)
- relative sensitivity of fungus (Aspergillus; Aspergillus versus Penicillium): more sensitive
- growth inhibition (Aspergillus; all concentrations up to 2.0 mg/ml, five days, room temperature, Aspergillus): growth of fungi was inhibited at all concentrations
- solubility in organic solvents ([8]; organic solvents such as alcohol): freely soluble
- solubility in water ([8]; water): slowly soluble in water to a limited extent
- growth inhibition (Mucor): growth was inhibited at all concentrations of docusate sodium tested
